Measurements taken from USRE44987E1, “Bromo-phenyl substituted thiazolyl dihydropyrimidines” (Sunshine Lake Pharma Co., Ltd., priority 2007, dated 2014).
Read-outs that look alike come from different tables or passages of the source.

Experiments:
hepatitis B virus [1] = assay: Antiviral action on hepatitis B virus in HepG2.2.15 cells (HBV DNA dot-blot hybridization); assay type: cell-based; conditions: 50% reduction of intra- or extracellular hepatitis B-specific band
Experimental: The antiviral action of the compounds of the invention on hepatitis B virus is investigated by methods based on those described by M. A. Sells et al., Proc. Natl. Acad. Sci., 84, 1005-1009 (1987) and B. E. Korba et al., Antiviral Research 19, 55-70 (1992).
The antiviral tests are carried out in 96-well microtiter plates. The first vertical row of the plate receives only growth medium and HepG2.2.15 cells. It serves as virus control.
Stock solutions of the test compounds (50 mM) are initially dissolved in DMSO, and further dilutions are prepared in the HepG2.2.15 growth medium. The compounds according to the invention are usually pipetted in a test concentration of 100 μM (1st test concentration) in each case into the second vertical test row of the microtiter plate and subsequently diluted in twofold steps […] in growth medium plus 2% by weight of fetal calf serum (volume 25 μl)
Each well of the microtiter plate then contains 225 μl of HepG2.2.15 cell suspension (5×10^4 cells/ml) in growth medium plus 2% by weight of fetal calf serum. The test mixture is incubated at 37° C. and 5% CO2 (v/v) for 4 days.
The supernatant is then aspirated off and discarded, and the wells receive 225 μl of freshly prepared growth medium. The compounds according to the invention are each added anew as 10-fold concentrated solution in a volume of 25 μl. The mixtures are incubated for a further 4 days
The supernatant and/or cells are then harvested and sucked by means of a vacuum onto 96-well dot-blot chambers covered with a nylon membrane (in accordance with the manufacturer's information).
After the supernatants or lysed cells is transferred to the nylon membrane of the blot apparatus (see above), the intra- or extracellular supernatants of the HepG2.2.15 cells are denatured (1.5 M NaCl/0.5 N NaOH), neutralized (3 M NaCl/0.5M Tris HCl, pH 7.5) and washed (2×SSC). The DNA is then baked onto the membrane by incubating the filters at 120° C. for 2-4 hours.
Detection of the viral DNA from the treated HepG2.2.15 cells on the nylon filters is usually carried out with nonradioactive, digoxigenin-labeled hepatitis B-specific DNA probes, each of which is labeled with digoxigenin, purified and employed for the hybridization in accordance with the manufacturer's information.
The prehybridization and hybridization take place in 5×SSC, 1×blocking reagent, 0.1% by weight N-lauroylsarcosine, 0.02% by weight SDS and 100 μg of herring sperm DNA. The prehybridization takes place at 60° C. for 30 minutes, and the specific hybridization takes place with 20 to 40 ng/ml of the digoxigenized, denatured HBV-specific DNA (14 hours, 60° C.). The filters are then washed.
The immunological detection of the digoxigenin-labeled DNA took place in accordance with the manufacturer's information: […]

hepatitis B virus [2] = conditions: examples of U.S. Pat. No. 7,074,784, values as described in that patent; cited from earlier work
[3] = Hepatitis B virus, HepG2.2.15, HepG2.2.15 cells

Work on `CCOC(=O)C1=C(CN2CCOCC2)NC(c2nccs2)=NC1c1ccc(F)cc1Br` (single isomer, unassigned; (-)) [(−)-5] yielded an IC50 (hepatitis B virus [1]; HepG2.2.15 cells) of 0.1 nM.

Molecule `COC(=O)C1=C(CN2CCOCC2)NC(c2nccs2)=NC1c1ccc(F)cc1Br` (single isomer, unassigned; (-)) [(−)-6] has an IC50 (hepatitis B virus [1]; HepG2.2.15 cells) of 0.2 nM.

In the case of `CCOC(=O)C1=C(CN2CCOCC2)NC(c2nccs2)=NC1c1ccc(F)cc1Br` (centres unmarked) [Example 5, Ethyl 4-(2-bromo-4-fluorophenyl)-2-(thiazol-2-yl)-6-(4-morpholinylmethy)-1,4-dihydropyrimidine-5-carboxylic ester], the IC50 (hepatitis B virus [1]; [3]) is listed as 0.2 nM and the IC50 (hepatitis B virus [2]) is listed as 2 to 4 nM.

In the case of `COC(=O)C1=C(CN2CCOCC2)NC(c2nccs2)=NC1c1ccc(F)cc1Br` (centres unmarked) [Example 6, Methyl 4-(2-bromo-4-fluorophenyl)-2-(thiazol-2-yl)-6-(4-morpholinylmethy)-1,4-dihydropyrimidine-5-carboxylic ester], the IC50 (hepatitis B virus [1]; [3]) is reported as 0.3 nM.
